Results: US4719235A, “Methods and compositions for treating viral infection” (Kern; Gerald N., priority 1985, dated 1988)
Read-outs that look alike come from different tables or passages of the source.

How the values were obtained:
HSV-2 [1] = experiment: Titration of HSV-2 after contact with serum-free docusate sodium solutions (plaque assay on MA-104 cells); assay type: cell-based, Herpes Simplex Type 2
HSV-2 [2] = experiment: Titration of HSV-2 after contact with docusate sodium solutions containing 10% fetal calf serum; assay type: cell-based, Herpes Simplex Type 2
Coxsackievirus B-5 [3] = experiment: Titration of Coxsackievirus B-5 after contact with docusate sodium solutions; assay type: cell-based; settings: 0.2 mg/ml
[4] = system: Respiratory syncytial virus (RSV); experiment: Inactivation of Respiratory Syncytial Virus (CPE on HeLa cells); assay type: cell-based
Influenza A virus [5] = experiment: Inactivation of Influenza A virus (CPE on MDCK cells); assay type: cell-based
[6] = Cytotoxicity in solutions free of serum, MA-104; assay type: cell-based, monkey; design: key to MA-104 (toxicity): 0: Cells had normal morphology; 4+: >90% of cells showed CTE; settings: monkey, ma-104 cells, 0.2 mg/ml, 37° C., read-out: MA-104 (toxicity)
Method: (§1) The cell lines used to evaluate cytotoxicity of docusate sodium were MA-104 derived from monkey kidneys, HeLa derived from human uterine carcinoma and primary fibroblasts from human foreskin. The cells were grown to confluency in 60×15 mm dishes. The cell monolayers were washed free of growth medium and 5 ml of serum-less growth medium containing docusate sodium at various concentrations was added. The curtures were incubated 24 hours at 37° C. and the cells then examined microscopically for cytotoxic effects (CTE). Controls were done in the same manner except that they were not exposed to docusate sodium.

MA-104 [7] = experiment: Cytotoxicity in solutions free of serum, MA-104; assay type: cell-based, monkey; design: key to MA-104 (toxicity): 0: Cells had normal morphology; 4+: >90% of cells showed CTE; settings: 24 hours, 37° C.
Method: as §1

[8] = Cytotoxicity in solutions free of serum, HeLa; assay type: cell-based, human; design: key to HeLa (toxicity): 0: Cells had normal morphology; 4+: >90% of cells showed CTE; settings: human, hela cells, 0.2 mg/ml, 37° C., read-out: HeLa (toxicity)
Method: as §1

HeLa = experiment: Cytotoxicity in solutions free of serum, HeLa; assay type: cell-based, human; design: key to HeLa (toxicity): 0: Cells had normal morphology; 4+: >90% of cells showed CTE; settings: 24 hours, 37° C.
Method: as §1

[9] = system: primary fibroblasts from human foreskin; experiment: Cytotoxicity in solutions free of serum, foreskin fibroblasts; assay type: cell-based; design: key to Foreskin (toxicity): 0: Cells had normal morphology; 4+: >90% of cells showed CTE; settings: 24 hours, 37° C.
Method: as §1

[10] = Cytotoxicity in solutions free of serum, selected cell lines (overall conclusion); assay type: cell-based; settings: serum-free medium, read-out: concentration toxic to the cells
Method: as §1

MA-104 [11] = experiment: Cytotoxicity in solutions containing serum, MA-104; assay type: cell-based, monkey; design: key: 0: Cells have normal morphology; 4+: >90% of cells showed CTE.; ±c: less than 10% of cells showed CTE; settings: 2% fetal calf serum, 24 hours, 37° C.
Method: (§2) The cells were grown to confluency in 60×15 mm dishes. The cell monolayers were washed free of growth medium and 5 ml of serum-less growth medium containing docusate sodium at various concentrations was added. The curtures were incubated 24 hours at 37° C. and the cells then examined microscopically for cytotoxic effects (CTE). Controls were done in the same manner except that they were not exposed to docusate sodium.
(§3) The same procedure that was used for Example 17 was used for this Example except that the medium used for growing the cells contained 2% by volume fetal calf serum.

[12] = Cytotoxicity in solutions containing serum, foreskin fibroblasts; assay type: cell-based, human; design: key to Foreskin (Cytotoxic effect): 0: Cells have normal morphology; 4+: >90% of cells showed CTE.; ±c: less than 10% of cells showed CTE; settings: human, foreskin fibroblasts, 2% fetal calf serum, 37° C., read-out: Foreskin (Cytotoxic effect)
Method: as §2, §3

[13] = system: primary fibroblasts from human foreskin; experiment: as above; assay type: cell-based; design: key to Foreskin (Cytotoxic effect): 0: Cells have normal morphology; 4+: >90% of cells showed CTE.; ±c: less than 10% of cells showed CTE; settings: 0.01 mg/ml, 2% fetal calf serum, 24 hours, 37° C.
Method: as §2, §3

Coxsackievirus B-5 [14] = experiment: Pretreatment of MA-104 cells prior to exposure to Coxsackievirus B-5; assay type: cell-based
[15] = system: Respiratory Syncytial Virus; experiment: Pretreatment of HeLa cells prior to exposure to Respiratory Syncytial Virus; assay type: cell-based
Adenovirus = experiment: Pretreatment of HeLa cells prior to exposure to Adenovirus; assay type: cell-based; settings: 0.125 mg/ml in 10% fetal calf serum MEM
Method: HeLa cells were washed free of growth medium and the cells were exposed to 0.125 mg/ml docusate sodium in 10% fetal calf serum MEM for 15 minutes. The docusate sodium solution was poured off, the cells rinsed with phosphate buffered saline and then exposed to appropriately diluted Adenovirus. A control solution prepared as above except for exposure to docusate sodium was also provided. After one hour at 37° C., the cells were overlayed with agar and incubated for 3 days at 37° C. to allow plaques to develop.

HSV-II = experiment: Duration of effect of pretreatment of MA-104 cells prior to exposure to HSV-II; assay type: cell-based, Herpes Simplex Type 2; settings: 0.02 mg/ml; for inhibition at 20 µg/mL: Human alphaherpesvirus 2, MA104, read-out: % Reduction In Infectivity
Method: MA-104 cell monolayers were washed twice with Earle's basal salt solution (EBSS) and a 0.02 mg/ml solution of docusate sodium was added to each culture dish. The culture dishes were incubated at 37° C. for one hour and the docusate sodium solutions poured off. The monolayers were then washed twice with EBSS and at appropriate time intervals infected with HSV-II. After the addition of overlay agar, the cultures were incubated at 37° C. for 3 days, stained with crystal voilet, and the plaques counted. Control cultures were treated in a similar manner except for exposure to docusate sodium.

[16] = system: selected cell lines (MA-104, HeLa, Foreskin)
[17] = cited from earlier work
Influenza A virus [18] = experiment: Pretreatment of MDCK cells prior to exposure to Influenza A virus; settings: 0.1 mg/ml
Method: Virus infectivity was determined by cytopathic effects (CPE).
The same procedure was used for this example as was used for Example 24 except that MDCK cells were substituted for HeLa cells and Influenza A virus was substituted for Respiratory Syncytial Virus. Two experiments were run.

SMILES: CCCCC(CC)COC(=O)CC(C(=O)OCC(CC)CCCC)S(=O)(=O)O (stereo not drawn) [docusate sodium, 1,4-bis(2-ethylhexyl)sodium sulfosuccinate]
- killing at 10 µg/mL (HSV-2 [1]; Human alphaherpesvirus 2, MA104, 0.25 h, 0.01 mg/ml, 15 min, 37° C., read-out: % Inactivation of HSV-2): 19%
- killing at 20 µg/mL (HSV-2 [1]; Human alphaherpesvirus 2, MA104, 0.25 h, 0.02 mg/ml, 15 min, 37° C., read-out: % Inactivation of HSV-2): 70%
- killing at 30 µg/mL (HSV-2 [1]; Human alphaherpesvirus 2, MA104, 0.25 h, 0.03 mg/ml, 15 min, 37° C., read-out: % Inactivation of HSV-2): 97%
- killing at 40 µg/mL (HSV-2 [1]; Human alphaherpesvirus 2, MA104, 0.25 h, 0.04 mg/ml, 15 min, 37° C., read-out: % Inactivation of HSV-2): 100%
- killing at 50 µg/mL (HSV-2 [1]; Human alphaherpesvirus 2, MA104, 0.25 h, 0.05 mg/ml, 15 min, 37° C., read-out: % Inactivation of HSV-2): 100%
- killing at 100 µg/mL (HSV-2 [1]; Human alphaherpesvirus 2, MA104, 0.25 h, 0.1 mg/ml, 15 min, 37° C., read-out: % Inactivation of HSV-2): 100%
- killing at 200 µg/mL (HSV-2 [1]; Human alphaherpesvirus 2, MA104, 0.25 h, 0.2 mg/ml, 15 min, 37° C., read-out: % Inactivation of HSV-2): 100%
- inactivation of HSV-2 (conclusion) (HSV-2 [1]; concentrations as low as 0.02 mg/ml): effectively inactivates HSV-2
- concentration required for a given percentage of HSV-2 inactivation (conclusion) (HSV-2 [2]; 10% fetal calf serum vs serum absent): higher concentrations of docusate sodium were required
- killing at 10 µg/mL (HSV-2 [2]; Human alphaherpesvirus 2, 0.25 h, 0.01 mg/ml, 10% fetal calf serum, 15 min, 37° C., read-out: % Inactivation of HSV-2): 10%
- killing at 100 µg/mL (HSV-2 [2]; Human alphaherpesvirus 2, 0.25 h, 0.1 mg/ml, 10% fetal calf serum, 15 min, 37° C., read-out: % Inactivation of HSV-2): 10%
- killing at 200 µg/mL (HSV-2 [2]; Human alphaherpesvirus 2, 0.25 h, 0.2 mg/ml, 10% fetal calf serum, 15 min, 37° C., read-out: % Inactivation of HSV-2): 95%
- inactivation of Coxsackievirus B-5 (conclusion) (Coxsackievirus B-5 [3]): did not inactivate Coxsackievirus B-5
- pfu/ml (Coxsackievirus B-5 [3]; exposure time 0 minutes (control 30,000)): 12,500 pfu/ml
- pfu/ml (Coxsackievirus B-5 [3]; exposure time 15 minutes): 23,000 pfu/ml
- pfu/ml (Coxsackievirus B-5 [3]; exposure time 60 minutes (control 25,500)): 30,000 pfu/ml
- Presence of CPE [4]: -
- inactivation of RSV (conclusion) [4]: RSV was inactivated
- Presence of CPE (Influenza A virus [5]): -
- inactivation of Influenza A virus (conclusion) (Influenza A virus [5]): readily inactivated
- cytotoxicity at 24 h [6]: > 90%
- MA-104 (toxicity) (MA-104 [7]; 0.01 mg/ml): 0
- MA-104 (toxicity) (MA-104 [7]; 0.05 mg/ml): 4+ (>90% of cells showed CTE.)
- MA-104 (toxicity) (MA-104 [7]; 0.1 mg/ml): 4+ (>90% of cells showed CTE.)
- cytotoxicity at 24 h [8]: > 90%
- HeLa (toxicity) (HeLa; 0.01 mg/ml): 0
- HeLa (toxicity) (HeLa; 0.05 mg/ml): 4+ (>90% of cells showed CTE.)
- HeLa (toxicity) (HeLa; 0.1 mg/ml): 4+ (>90% of cells showed CTE.)
- Foreskin (toxicity) ([9]; 0.01 mg/ml): 0
- Foreskin (toxicity) ([9]; 0.05 mg/ml): 4+ (>90% of cells showed CTE.)
- Foreskin (toxicity) ([9]; 0.1 mg/ml): 4+ (>90% of cells showed CTE.)
- MCC at 24 h [10]: 10 to 50 µg/mL
- MA-104 (Cytotoxic effect) (MA-104 [11]; 0.01 mg/ml): 0
- MA-104 (Cytotoxic effect) (MA-104 [11]; 0.02 mg/ml): 0
- MA-104 (Cytotoxic effect) (MA-104 [11]; 0.03 mg/ml): 0
- MA-104 (Cytotoxic effect) (MA-104 [11]; 0.04 mg/ml): 0
- cytotoxicity at 24 h ([12]; 0.02 mg/ml): < 10%
- cytotoxicity at 24 h ([12]; 0.03 mg/ml): > 90%
- cytotoxicity at 24 h ([12]; 0.04 mg/ml): > 90%
- Foreskin (Cytotoxic effect) [13]: 0
- effect on plaque formation (infectivity) (conclusion) (Coxsackievirus B-5 [14]; 0.02 mg/ml, pretreatment): no effect on plaque formation (infectivity)
- pfu/ml (Coxsackievirus B-5 [14]; .02 mg/ml, pretreatment 15 minutes (control 1,000,000)): 1,800,000 pfu/ml
- Presence of CPE [15]: - and +
- protection of HeLa cells against RSV infection (conclusion) [15]: confers partial protection on HeLa cells against RSV infection
- plaque forming units/ml (Adenovirus; pretreatment 15 minutes (control 180,000)): 175,000 pfu/ml
- inhibition at 125 µg/mL (Adenovirus; unidentified adenovirus, HeLa, 0.25 h, pretreatment 15 minutes, read-out: % decrease in pfu): 3%
- pfu/ml (HSV-II; infection 0 hours after exposure (control 270,000)): 53,000 pfu/ml
- pfu/ml (HSV-II; infection 2 hours after exposure (control 30,000)): 14,000 pfu/ml
- pfu/ml (HSV-II; infection 24 hours after exposure (control 69,000)): 69,000 pfu/ml
- pfu/ml (HSV-II; infection 72 hours after exposure (control 69,000)): 58,000 pfu/ml
- duration of anti-herpes effect of pretreatment (conclusion) (HSV-II; one hour pretreatment): transitory
- inhibition at 20 µg/mL (HSV-II; infection 0 hours after exposure): 81%
- inhibition at 20 µg/mL (HSV-II; infection 2 hours after exposure): 54%
- inhibition at 20 µg/mL (HSV-II; infection 24 hours after exposure): 0%
- inhibition at 20 µg/mL (HSV-II; infection 72 hours after exposure): 16%
- effect of serum on cytotoxicity (conclusion) [16]: presence of serum reduced the cytotoxicity
- relative sensitivity of cell lines (conclusion) [16]: MA-104 cells were less sensitive to docusate sodium than were HeLa and foreskin fibroblast cells
- solubility in alcohol ([17]; alcohol): freely soluble in alcohol
- solubility in water ([17]; water): slowly soluble in water
- Presence of CPE (Influenza A virus [18]; experiment 1, virus dilution 10^-1 (control +)): -
- Presence of CPE (Influenza A virus [18]; experiment 1, virus dilution 10^-2 (control +)): -
- Presence of CPE (Influenza A virus [18]; experiment 1, virus dilution 10^-3 (control -)): -
- Presence of CPE (Influenza A virus [18]; experiment 1, virus dilution 10^-4 (control -)): -
- Presence of CPE (Influenza A virus [18]; experiment 2, virus dilution 10^-2 (control +)): -
- Presence of CPE (Influenza A virus [18]; experiment 2, virus dilution 10^-3 (control -)): -
- Presence of CPE (Influenza A virus [18]; experiment 2, virus dilution 10^-4 (control -)): -
